Reference: patent US10973801B2, “Capsid assembly modulator dosing regimen” (Janssen Sciences Ireland Unlimited Company, priority 2018, dated 2021)
Where “and” joins values, the source holds several entries; their conditions need not be identical. Equal values may be shown once. Read-outs that look alike come from different tables or passages of the source.

What was measured:
[1] = system: HBV RNA; test: HBV RNA in treatment naïve chronic hepatitis B patients; format: in vivo, hepatitis B virus; conditions: N 8
Protocol: In part 2 of this study (FIG. 1, sessions 8-9), the objective was to evaluate the safety, PK, and antiviral activity of Compound A in treatment naïve, chronic hepatitis B patients over a 28-day treatment period. The patient criteria were: • HBeAg-positive or negative • Plasma HBV DNA>2.0 log 10 IU/mL • ALT/AST<2.5×ULN • METAVIR stage<F3. 1.1 Patient Baseline Characteristics HBV DNA was assessed for each patient weekly during this study (see FIG. 3). A mean reduction in plasma HBV DNA levels of 2.16 (±0.49 SD) log10 IU/mL (25 mg Compound A) and 2.89 (±0.48 SD) log10 IU/mL (75 mg Compound A) from baseline was observed after 28 days. Three patients dosed with 75 mg QD achieved HBV DNA below the level of quantification of the HBV DNA assay while none in the 25 mg Compound A group achieved this. A more pronounced and consistent decline in HBV DNA was observed across patients in the 75 mg group compared with the 25 mg group.

[2] = Pharmacokinetics of single ascending doses in healthy Japanese volunteers; format: in vivo, human; conditions: for Mean CL/F (SD) / Cmax / Vd/F / half-life / Tmax: fasted (n = 6); for Cmax / Vd/F / half-life / Tmax: human, plasma, oral; for Cmax: read-out: Mean Cmax (SD); for Vd/F: read-out: Mean Vd/F (SD); for half-life: read-out: Mean t1/2 term (SD) (converted); for Tmax: read-out: Median tmax
Protocol: A double-blind, placebo-controlled study was done to assess the safety, tolerability, and pharmacokinetics (PK) of Compound A. Thirty-two healthy adult Japanese volunteers were randomized into four cohorts. The volunteers were randomized 3:1 to receive a single dose of Compound A or placebo in a fasted state (see FIG. 4). The safety, tolerability and PK plasma profiles of Compound A were assessed after each dose. Full plasma PK profiles were determined up to 28 days after each single dose of Compound A. Urinary elimination was assessed in Cohort C (see FIG. 4) for 7 day.
The PKs were dose-dependent in all four treatment cohorts. […] The inter-subject variability, expressed as % CV, was low to moderate and similar across dose levels.

[3] = Oral bioavailability of Compound A 25-mg and 100-mg oral tablets, fasted and fed, in healthy adult subjects; format: in vivo, human; conditions: for Tmax: read-out: tmax (median)
Protocol: The primary objectives were to evaluate the oral bioavailability of Compound A when administered as single dose of 150 mg, composed of 6×25-mg oral tablets, under fasted and fed conditions, and as single dose of 300 mg, composed of 3×100-mg oral tablets, under fasted conditions in healthy adult subjects Part I was conducted to assess the bioavailability of new 25 mg oral tablets of Compound A under fasted and fed conditions, and of new 100 mg oral tablets of Compound A under fasted conditions, in healthy adult subjects. In Treatment Period 1 of Part I, all 16 subjects received a single 150 mg dose (6×25 mg oral tablets) under fed conditions (Treatment A). Thereafter, subjects were randomly assigned to either Arm 1 or Arm 2 in a 1:1 ratio. In Arm 1, subjects received a single 150 mg dose (6×25 mg oral tablets) under fasted conditions in Treatment Period 2 (Treatment B). In Arm 2, subjects received a single 300 mg dose (3×100 mg oral tablets) under fasted conditions in Treatment Period 2 (Treatment C). Full pharmacokinetic (PK) profiles of Compound A were determined over approximately 768 hours […] after Compound A administration on Day 1 of each treatment period. Safety and tolerability were assessed throughout the study. In Part I, 16 healthy adult subjects were included. After Treatment A (150 mg Compound A, fed) in Treatment Period 1, subjects were randomly assigned to either Arm 1 (n=8; Treatment B [150 mg Compound A, fasted]) or Arm 2 (Treatment C [[…]; 300 mg Compound A, fasted]) in a 1:1 ratio in Treatment Period 2. Fifteen subjects completed study participation in Part I, but all 16 subjects were included in the PK and safety analyses. […] Subjects had to be healthy on the basis of medical and surgical history, physical examination, 12 lead electrocardiogram (ECG), vital signs, and clinical laboratory tests performed at screening. Male and female subjects had to adhere to the contraceptive requirements as specified in the protocol. The study consisted of a screening phase, an admission phase, a treatment phase, and a follow-up phase (posttreatment phase). During the follow-up phase, subjects returned to the study site 10-14 days and 30-35 days after study drug administration in the last treatment period for a follow-up visit. The duration of each treatment phase was 33±3 days and the study duration per individual subject was at least 61 days (including admission and follow-up period), screening period not included.

[4] = 150 mg, 6 × 25 mg, Fasting, Treatment B
[5] = 150 mg, 6 × 25 mg, Fasting, Treatment B (Reference)
[6] = 150 mg, 6 × 25 mg, Fed, Treatment A
[7] = 300 mg, 3 × 100 mg, Fasting, Treatment C
[8] = 300 mg, 3 × 100 mg, Fasting, Treatment C (Test)
[9] = Treatment A (fed) vs Treatment B (fasted), 150 mg
[10] = Treatment C (3 × 100 mg) vs Treatment B (6 × 25 mg), fasting

C[C@H](NS(=O)(=O)c1cc(C(=O)Nc2ccc(F)c(C#N)c2)n(C)c1)C(F)(F)F [Compound A]
HBV RNA Day 29 Mean Change from Baseline ([1]; 25 mg QD): −2.30 log10 cp/mL | HBV RNA Day 29 Not detected (number of patients) ([1]; 25 mg QD): 3 | HBV RNA Day 29 Mean Change from Baseline ([1]; 75 mg QD): −1.85 log10 cp/mL | HBV RNA Day 29 Not detected (number of patients) ([1]; 75 mg QD): 6 | Mean CL/F (SD) ([2]; 25 mg single dose): 1.03 (0.33) L/h | Mean CL/F (SD) ([2]; 160 mg single dose): 0.929 (0.24) L/h | Mean CL/F (SD) ([2]; 300 mg single dose): 0.852 (0.17) L/h | Mean CL/F (SD) ([2]; 500 mg single dose): 0.919 (0.23) L/h | dose dependence of PKs ([2]; all four treatment cohorts): dose-dependent | Cmax ([2]; 25 mg single dose): 375 ng/mL | Vd/F ([2]; 25 mg single dose): 132 L | half-life ([2]; 25 mg single dose): 106 h | Tmax ([2]; 25 mg single dose): 1.75 h | Cmax ([2]; 160 mg single dose): 296 ng/mL | Vd/F ([2]; 160 mg single dose): 126 L | half-life ([2]; 160 mg single dose): 100 h | Tmax ([2]; 160 mg single dose): 3 h | Cmax ([2]; 300 mg single dose): 308 ng/mL | Vd/F ([2]; 300 mg single dose): 1140 L | half-life ([2]; 300 mg single dose): 116 h | Tmax ([2]; 300 mg single dose): 3 h | Cmax ([2]; 500 mg single dose): 328 ng/mL | Vd/F ([2]; 500 mg single dose): 119 L | half-life ([2]; 500 mg single dose): 95.6 h | Tmax ([2]; 500 mg single dose): 1.75 h | administered dose excreted via the kidneys ([2]; single dose 300 mg, Cohort C): 18% | unchanged drug excreted in urine ([2]; single dose 300 mg, Cohort C, 7 day): 53.9 mg | AUClast, dose normalized to 25 mg (mean) [3, 4]: 29467 ng·h/mL | AUC∞, dose normalized to 25 mg (mean) [3, 4]: 30318 ng·h/mL | Cmax, dose normalized to 25 mg (mean) [3, 4]: 320 ng/mL | AUClast, dose normalized (to 25 mg), Geometric Mean [3, 5]: 27226 ng·h/mL | AUC∞, dose normalized (to 25 mg), Geometric Mean [3, 5]: 28011 ng·h/mL | Cmax, dose normalized (to 25 mg), Geometric Mean [3, 5]: 294 ng/mL | AUClast, dose normalized to 25 mg (mean) [3, 6]: 28502 ng·h/mL | AUC∞, dose normalized to 25 mg (mean) [3, 6]: 29580 ng·h/mL | Cmax, dose normalized to 25 mg (mean) [3, 6]: 257 ng/mL | AUClast, dose normalized to 25 mg (mean) [3, 7]: 30951 ng·h/mL | AUC∞, dose normalized to 25 mg (mean) [3, 7]: 32747 ng·h/mL | Cmax, dose normalized to 25 mg (mean) [3, 7]: 231 ng/mL | AUClast, dose normalized (to 25 mg), Geometric Mean [3, 8]: 30835 ng·h/mL | AUC∞, dose normalized (to 25 mg), Geometric Mean [3, 8]: 32329 ng·h/mL | Cmax, dose normalized (to 25 mg), Geometric Mean [3, 8]: 231 ng/mL | AUClast Geometric Mean Ratio [3, 9]: 101.05% | AUC∞ Geometric Mean Ratio [3, 9]: 101.91% | Cmax Geometric Mean Ratio [3, 9]: 85.8% and 85.84% | Cmax lower under fed conditions [3, 9]: 14.2% | Mean (range) t½term ([3]; Treatment A, 150 mg fed): 134.3 (65.7-221.6) hours | Mean (range) t½term ([3]; Treatment B, 150 mg fasted): 123.9 (72.3-195.7) hours | AUClast, dose normalized, Geometric Mean Ratio [3, 10]: 113.26% | AUC∞, dose normalized, Geometric Mean Ratio [3, 10]: 115.42% | Cmax, dose normalized, Geometric Mean Ratio [3, 10]: 78.4% and 78.44% | dose normalized Cmax lower for the 100 mg tablet strength compared to the 25 mg tablet strength ([3]; Treatment C vs Treatment B, fasted): 21.6% | Mean (range) t½term ([3]; Treatment C, 300 mg fasted): 161.1 (111.5-257.3) hours | AUC(0-t) ([3]; both sexes, human, in vivo, oral, 150 mg, 6 × 25 mg, Fasting, Treatment B (Reference), read-out: AUClast, Geometric Mean): 163 µg·h/mL | AUC(0-inf) ([3]; both sexes, human, in vivo, oral, 150 mg, 6 × 25 mg, Fasting, Treatment B (Reference), read-out: AUC∞, Geometric Mean): 168 µg·h/mL | Cmax ([3]; both sexes, human, in vivo, oral, 150 mg, 6 × 25 mg, Fasting, Treatment B (Reference), read-out: Cmax, Geometric Mean): 1770 ng/mL | AUC(0-t) ([3]; both sexes, human, in vivo, oral, 150 mg, 6 × 25 mg, Fasting, Treatment B, read-out: AUClast (mean)): 177 µg·h/mL | AUC(0-inf) ([3]; both sexes, human, in vivo, oral, 150 mg, 6 × 25 mg, Fasting, Treatment B, read-out: AUC∞ (mean)): 182 µg·h/mL | Cmax ([3]; both sexes, human, in vivo, oral, 150 mg, 6 × 25 mg, Fasting, Treatment B, read-out: Cmax (mean)): 1920 ng/mL | Tmax ([3]; both sexes, human, in vivo, oral, 150 mg, 6 × 25 mg, Fasting, Treatment B): 1.75 h | Cmax ([3]; both sexes, human, in vivo, oral, 150 mg, 6 × 25 mg, Fed (Standard Breakfast), Treatment A, read-out: Cmax (mean)): 1540 ng/mL | AUC(0-t) ([3]; both sexes, human, in vivo, oral, 150 mg, 6 × 25 mg, Fed, Treatment A (Test), read-out: AUClast, Geometric Mean): 165 µg·h/mL | AUC(0-inf) ([3]; both sexes, human, in vivo, oral, 150 mg, 6 × 25 mg, Fed, Treatment A (Test), read-out: AUC∞, Geometric Mean): 171 µg·h/mL | Cmax ([3]; both sexes, human, in vivo, oral, 150 mg, 6 × 25 mg, Fed, Treatment A (Test), read-out: Cmax, Geometric Mean): 1520 ng/mL | AUC(0-t) ([3]; both sexes, human, in vivo, oral, 150 mg, 6 × 25 mg, Fed, Treatment A, read-out: AUClast (mean)): 171 µg·h/mL | AUC(0-inf) ([3]; both sexes, human, in vivo, oral, 150 mg, 6 × 25 mg, Fed, Treatment A, read-out: AUC∞ (mean)): 177 µg·h/mL | Tmax ([3]; both sexes, human, in vivo, oral, 150 mg, 6 × 25 mg, Fed, Treatment A): 4 h | AUC(0-t) ([3]; both sexes, human, in vivo, oral, 300 mg, 3 × 100 mg, Fasting, Treatment C, read-out: AUClast (mean)): 371 µg·h/mL | AUC(0-inf) ([3]; both sexes, human, in vivo, oral, 300 mg, 3 × 100 mg, Fasting, Treatment C, read-out: AUC∞ (mean)): 393 µg·h/mL | Cmax ([3]; both sexes, human, in vivo, oral, 300 mg, 3 × 100 mg, Fasting, Treatment C, read-out: Cmax (mean)): 2770 ng/mL | Tmax ([3]; both sexes, human, in vivo, oral, 300 mg, 3 × 100 mg, Fasting, Treatment C): 3 h | clearance ([3]; both sexes, human, in vivo, oral, over all treatments and individuals, read-out: Clearance (CUF)): 7.83 to 25.8 mL/min
